Measured values published in publication PMC5924804, “Various Bee Pheromones Binding Affinity, Exclusive Chemosensillar Localization, and Key Amino Acid Sites Reveal the Distinctive Characteristics of Odorant-Binding Protein 11 in the Eastern Honey Bee, Apis cerana” (Frontiers in Physiology, 2018).
Positions count from the first letter of the chain named. Like-named read-outs stand apart in the source and are kept apart here.

How the values were obtained:
recombinant AcerOBP11 = recombinant AcerOBP11 (Apis cerana, UniProt S5CRW7); assay: biochemical; assay type: binding
Description: (§1) The interactions were monitored by recording 1-NPN fluorescence upon addition of 1-NPN aliquots with excitation wavelength of 337 nm, and emission wavelength of 350–450 nm, where the slit was 5 nm. Titrations were carried out at 25°C with 1 μmol/L recombinant protein in PBS buffer. The fluorescence intensities at the maximum of emission wavelength (400~410 nm) were recorded to calculate Scatchard plots. The dissociation constant of the protein/1-NPN complex (K1−NPN) was calculated from Scatchard plots and applied in the equation below to estimate ligand binding affinity. All 23 ligands (1 mM) used in competition experiments were dissolved in spectrally pure grade methanol. Three independent measurements were taken for binding data.

[1] = target: T1, AcerOBP11m-Ile140 (Ile140Gly mutant) (Apis cerana, UniProt S5CRW7, I140G); assay: Fluorescence competitive binding assay with 1-NPN, mutant AcerOBP11m-Ile140
T1 sequence (S5CRW7 1-142 I140G): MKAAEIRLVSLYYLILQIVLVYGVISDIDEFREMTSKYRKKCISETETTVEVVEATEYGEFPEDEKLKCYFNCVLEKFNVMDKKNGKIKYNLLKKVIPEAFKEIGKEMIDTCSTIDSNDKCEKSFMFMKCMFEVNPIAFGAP
Description: as §1, with “Fluorescence experiments on AcerOBP11 with N-phenyl-1-naphthylamine (1-NPN) were carried out on a Shimadzu RF-5301 spectrofluorimeter using a quartz cuvette in a right-angle configuration. The interactions” for “The interactions”
(§2) In order to verify whether the predicted interaction sites played a role in the binding of AcerOBP11 protein with ligands, site-directed mutagenesis of the corresponding amino acid was carried out. The mutant primers were designed by a partial overlap method before synthesis. The plasmids of pET-32a/AcerOBP11 wild-type were mutated by using fast mutagenesis system kit (Transgen, CN) and then transformed into BL21 (DE3) competent cells. The mutant plasmids of target sites were confirmed by sequencing, and then the mutant proteins were obtained by the induction and purification in the same method as AcerOBP11 wild-type above. The secondary structure of purified AcerOBP11 recombinant protein mutants was also analyzed using circular dichroism (CD) spectrometry (815 type, Jasco, JP). The mutant proteins were used for competitive fluorescence experiments with the six candidate ligands chosen from the previous section. The target amino acids and binding mode of AcerOBP11 binding with candidate ligands were acquired by comparing the dissociation constant KD between wild-type and mutant AcerOBP11. Statistical analysis data (mean ± SE) of KD values for the same mutated amino acid site were also used as one-way analysis of variance (ANOVA) followed by a mean LSD test.

[2] = target: T2, AcerOBP11m-Phe101 (Phe101Gly mutant) (Apis cerana, UniProt S5CRW7, F101G); assay: Fluorescence competitive binding assay with 1-NPN, mutant AcerOBP11m-Phe101; settings: for change of KD compared with AcerOBP11-wt: AcerOBP11m-Phe101 vs wild-type
T2 sequence (S5CRW7 1-142 F101G): T1 sequence (S5CRW7 1-142 I140G) with F101G, G140I
Description: as §1, with “Fluorescence experiments on AcerOBP11 with N-phenyl-1-naphthylamine (1-NPN) were carried out on a Shimadzu RF-5301 spectrofluorimeter using a quartz cuvette in a right-angle configuration. The interactions” for “The interactions”
as §2

[3] = target: T3, AcerOBP11m-Ile97 (Ile97Gly mutant) (Apis cerana, UniProt S5CRW7, I97G); assay: Fluorescence competitive binding assay with 1-NPN, mutant AcerOBP11m-Ile97
T3 sequence (S5CRW7 1-142 I97G): T1 sequence (S5CRW7 1-142 I140G) with I97G, G140I
Description: as §1, with “Fluorescence experiments on AcerOBP11 with N-phenyl-1-naphthylamine (1-NPN) were carried out on a Shimadzu RF-5301 spectrofluorimeter using a quartz cuvette in a right-angle configuration. The interactions” for “The interactions”
as §2

ASP1 = target: ASP1; parameters: method as in Weng et al., 2013; settings: ref Weng et al., 2013; cited from earlier work
ASP2 = target: ASP2; parameters: method as in Li et al., 2013; settings: ref Li et al., 2013; cited from earlier work
[4] = calculated from IC50, KD = [IC50]/(1+[1-NPN]/K1-NPN), Table 1, read-out: KD
[5] = displacement of 1-NPN, 1 μmol/L protein in PBS, 25°C, Table 1, read-out: [IC50]
[6] = AcerOBP11m-Ile140, Table S4, mean ± SE, read-out: KD
[7] = AcerOBP11m-Ile140, Table S4, mean ± SE, read-out: [IC50]
[8] = KD, calculated from IC50, KD = [IC50]/(1+[1-NPN]/K1-NPN), Table 1
[9] = [IC50], AcerOBP11-wt, Table S4, mean ± SE
[10] = [IC50], displacement of 1-NPN, 1 μmol/L protein in PBS, 25°C, Table 1
[11] = AcerOBP11m-Phe101, Table S4, mean ± SE, read-out: KD
[12] = AcerOBP11m-Phe101, Table S4, mean ± SE, read-out: [IC50]
[13] = AcerOBP11m-Ile97, Table S4, mean ± SE, read-out: KD
[14] = AcerOBP11m-Ile97, Table S4, mean ± SE, read-out: [IC50]
[15] = KD, AcerOBP11-wt, Table S4, mean ± SE

recombinant AcerOBP11, sequence (S5CRW7 entry or part of it): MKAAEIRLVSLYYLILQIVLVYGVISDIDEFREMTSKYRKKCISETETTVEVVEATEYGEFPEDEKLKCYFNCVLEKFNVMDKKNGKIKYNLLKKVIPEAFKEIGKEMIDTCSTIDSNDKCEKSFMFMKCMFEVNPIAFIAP

CC1CCC(C(C)C)C(O)C1 (racemic) [DL-Menthol]
IC50 (recombinant AcerOBP11): 26.2 µM | Kd (recombinant AcerOBP11): 4.34 µM

CC12CCC(CC1)C(C)(C)O2 [1,8-Cineole]
IC50 (recombinant AcerOBP11): 21.1 µM | Kd (recombinant AcerOBP11; [4]): 4.3 µM

CCCCCC(C)=O [2-Heptanone]
Kd (recombinant AcerOBP11; [4]): 4.32 µM | IC50 (recombinant AcerOBP11; [5]): 31.1 µM

Cc1ccc(C=O)cc1C [3,4-Dimethylbenzaldehyde]
Kd (recombinant AcerOBP11; [4]): 4.76 µM | IC50 (recombinant AcerOBP11; [5]): 36.7 µM

CC1=CCC2C(C1)C2(C)C (stereo not drawn) [3-Carene]
Kd (recombinant AcerOBP11; [4]): 9.79 µM

C=CCc1ccc(OC)c(OC)c1 [4-Allylveratrole]
Kd [1, 6]: 4.28 ± 0.279 µM | IC50 [1, 7]: 22.5 ± 1.46 µM | Kd (recombinant AcerOBP11; [8]): 2.67 µM | IC50 (recombinant AcerOBP11; [9]): 21 ± 0.22 µM | IC50 (recombinant AcerOBP11; [10]): 16.8 µM | Kd [2, 11]: 4.84 ± 0.092 µM | IC50 [2, 12]: 20.1 ± 0.381 µM | change of KD compared with AcerOBP11-wt [2]: did not observe significant increases | Kd [3, 13]: 5.83 ± 0.06 µM | IC50 [3, 14]: 25.823 ± 0.022 µM | change of KD compared with AcerOBP11-wt ([3]; AcerOBP11m-Ile97 vs wild-type): significantly increased

CC(=O)CCCCC/C=C/C(=O)O [9-ODA, (E)-9-oxo-2-decanoic acid]
Kd (recombinant AcerOBP11; [4]): 6.67 µM | IC50 (recombinant AcerOBP11; [5]): 36.9 µM | Kd (recombinant AcerOBP11; read-out: KD): < 10 µM

CCCCCCCCCCCCCCCC(=O)OCC [Ethyl palmitate]
Kd [1, 6]: 5.34 ± 0.167 µM | IC50 [1, 7]: 16.6 ± 0.52 µM | Kd (recombinant AcerOBP11; [15]): 3.788 ± 0.012 µM | Kd (recombinant AcerOBP11; [8]): 3.82 µM | IC50 (recombinant AcerOBP11; [9]): 24.39 ± 0.076 µM | IC50 (recombinant AcerOBP11; [10]): 19.4 µM | Kd [2, 11]: 3.89 ± 0.143 µM | IC50 [2, 12]: 20.3 ± 0.747 µM | change of KD compared with AcerOBP11-wt [2]: did not observe significant increases | Kd [3, 13]: 1.86 ± 0.022 µM | IC50 [3, 14]: 6.61 ± 0.076 µM

CC(C)=CCC/C(C)=C/CC/C(C)=C/CO [Farnesol]
Kd [1, 6]: 4.93 ± 0.133 µM | IC50 [1, 7]: 19.9 ± 0.536 µM | Kd (recombinant AcerOBP11; [8]): 4.71 µM | IC50 (recombinant AcerOBP11; [9]): 20.6 ± 0.237 µM | IC50 (recombinant AcerOBP11; [10]): 32.2 µM | Kd [2, 11]: 3.14 ± 0.072 µM | IC50 [2, 12]: 17.8 ± 0.411 µM | Kd [3, 13]: 5.24 ± 0.069 µM | IC50 [3, 14]: 21.3 ± 0.237 µM | change of KD compared with AcerOBP11-wt ([3]; AcerOBP11m-Ile97 vs wild-type): significantly increased

CC(C)=CCC/C(C)=C/CO [Geraniol]
Kd (recombinant AcerOBP11; [8]): 8.58 µM | IC50 (recombinant AcerOBP11; [10]): 39.9 µM

COC(=O)c1ccc(O)cc1 [HOB, methyl p-hydroxybenzoate]
IC50 [1]: 5.57 ± 0.114 µM | Kd [1]: 1.91 ± 0.039 µM | Kd (recombinant AcerOBP11; KD): < 10 µM | Kd (recombinant AcerOBP11; [8]): 1.35 µM | IC50 (recombinant AcerOBP11; [9]): 8.31 ± 0.156 µM | IC50 (recombinant AcerOBP11; [10]): 8.33 µM | IC50 [2]: 6.257 ± 0.025 µM | Kd [2]: 1.447 ± 0.006 µM | change of KD compared with AcerOBP11-wt [2]: did not observe significant increases | IC50 [3]: 6.09 ± 0.156 µM | Kd [3]: 1.48 ± 0.045 µM

CC(=O)OCCC(C)C [Isoamyl acetate]
Kd [1, 6]: 3.99 ± 0.221 µM | IC50 [1, 7]: 12.9 ± 0.697 µM | increase of KD compared with AcerOBP11-wt ([1]; AcerOBP11m-Ile140 vs wild-type, p < 0.01): 1.8 fold | Kd (recombinant AcerOBP11; [8]): 3.3 µM | IC50 (recombinant AcerOBP11; [9]): 16.88 ± 0.144 µM | IC50 (recombinant AcerOBP11; [10]): 24 µM | Kd [2, 11]: 2.61 ± 0.063 µM | IC50 [2, 12]: 10.7 ± 0.26 µM | change of KD compared with AcerOBP11-wt [2]: did not observe significant increases | Kd [3, 13]: 4.544 ± 0.022 µM | IC50 [3, 14]: 17.75 ± 0.144 µM | change of KD compared with AcerOBP11-wt ([3]; AcerOBP11m-Ile97 vs wild-type): significantly increased

C=CC(C)(O)CCC=C(C)C (stereo not drawn) [Linalool]
IC50 (recombinant AcerOBP11): 55 µM | Kd (recombinant AcerOBP11): 9.53 µM

CCCCCCCC/C=C\CCCCCCCC(=O)OC [Methyl oleate]
relative fluorescence of 1-NPN (recombinant AcerOBP11; ligand 1-11 μmol/L): ≥ 50%

CCCCCCCCCCCCCCCC(=O)OC [Methyl palmitate]
Kd (recombinant AcerOBP11; [4]): 4.38 µM | IC50 (recombinant AcerOBP11; [5]): 21 µM

COC(=O)c1ccccc1O [Methyl salicylate]
IC50 (recombinant AcerOBP11): 40 µM | Kd (recombinant AcerOBP11): 6.83 µM

C=CC(=C)CCC=C(C)C [Myrcene]
Kd (recombinant AcerOBP11; [4]): 10.7 µM | IC50 (recombinant AcerOBP11; [5]): 45.7 µM

CCCCCCCCCCCCCC(=O)O [Myristic acid]
IC50 (recombinant AcerOBP11): 45.2 µM | Kd (recombinant AcerOBP11): 7.71 µM

CC(C)=CCC/C(C)=C\CO [Nerol]
Kd (recombinant AcerOBP11; [8]): 6.13 µM | IC50 (recombinant AcerOBP11; [10]): 33.9 µM

O=CCc1ccccc1 [Phenylacetaldehyde]
IC50 (recombinant AcerOBP11): 21.6 µM | Kd (recombinant AcerOBP11): 3.75 µM

CCCCCCO [n-hexanol]
Kd [1, 6]: 3.19 ± 0.076 µM | IC50 [1, 7]: 11.8 ± 0.283 µM | Kd (recombinant AcerOBP11; [15]): 2.79 ± 0.104 µM | Kd (recombinant AcerOBP11; [8]): 2.79 µM | IC50 (recombinant AcerOBP11; [9]): 21.1 ± 0.785 µM | Kd [2, 11]: 2.321 ± 0.02 µM | IC50 [2, 12]: 14.26 ± 0.124 µM | Kd [3, 13]: 10.1 ± 0.456 µM | IC50 [3, 14]: 33.4 ± 0.785 µM | change of KD compared with AcerOBP11-wt ([3]; AcerOBP11m-Ile97 vs wild-type): significantly increased | increase of KD compared with AcerOBP11-wt ([3]; AcerOBP11m-Ile97 vs wild-type, p < 0.01): 3.60 fold

CC(=O)/C=C/C1=C(C)CCCC1(C)C [β- Ionone]
Kd (ASP1): 14.7 µM | Kd (ASP2): 5.14 µM | Kd (recombinant AcerOBP11; [8]): 3.79 µM | IC50 (recombinant AcerOBP11; [10]): 21.1 µM
